Measurements published in ChEMBL document CHEMBL4680112, “Synthesis and Structure-Activity Relationships of Inhibitors That Target the C-Terminal MEEVD on Heat Shock Protein 90” (ACS Med Chem Lett, 2018).
pIC50: −log10 of the molar value. The source made the active and inactive calls. The rule behind the calls is not given here. Non-standard residues stand in square brackets, D forms with d. Residues, ends and D or L forms follow the SMILES beside them.

The molecules below were run against T1, Heat shock protein HSP 90-beta (Homo sapiens, UniProt P08238) (assay: Inhibition of C-terminal HSP90beta (527 to 724 residues) (unknown origin) interaction with CYP40 measured after 30 mins by Alphascreen assay). Conditions: not given.
T1 sequence (P08238 whole entry, the tested form may be a part): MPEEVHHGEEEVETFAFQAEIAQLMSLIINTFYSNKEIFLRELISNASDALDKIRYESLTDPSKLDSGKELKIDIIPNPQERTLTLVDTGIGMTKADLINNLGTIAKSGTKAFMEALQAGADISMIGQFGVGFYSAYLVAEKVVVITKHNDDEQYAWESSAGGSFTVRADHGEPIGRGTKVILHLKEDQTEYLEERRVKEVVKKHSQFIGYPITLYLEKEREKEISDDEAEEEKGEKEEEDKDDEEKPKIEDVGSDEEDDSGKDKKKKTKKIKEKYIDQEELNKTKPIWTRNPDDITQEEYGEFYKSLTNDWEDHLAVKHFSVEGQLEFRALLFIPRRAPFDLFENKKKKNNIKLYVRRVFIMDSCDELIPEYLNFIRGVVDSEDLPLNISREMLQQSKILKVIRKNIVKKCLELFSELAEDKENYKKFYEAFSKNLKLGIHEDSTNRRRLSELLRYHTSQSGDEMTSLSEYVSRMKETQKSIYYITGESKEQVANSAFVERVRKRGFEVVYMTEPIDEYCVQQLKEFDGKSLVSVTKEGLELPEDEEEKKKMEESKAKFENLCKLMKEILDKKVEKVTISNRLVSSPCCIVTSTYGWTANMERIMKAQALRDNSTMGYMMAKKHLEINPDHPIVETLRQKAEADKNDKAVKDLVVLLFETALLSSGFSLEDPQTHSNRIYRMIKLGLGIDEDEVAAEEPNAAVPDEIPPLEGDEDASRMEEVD
Molecule CC[C@H](C)[C@H](NC(=O)[C@H](CCCNC(=N)N)NC(=O)[C@H](C)NC(=O)[C@H](Cc1ccc(O)cc1)NC(=O)[C@H](C)NC(=O)[C@@H](N)CCCCN)C(=O)NCC(=O)N[C@@H](CC(N)=O)C(=O)N[C@@H](CO)C(=O)N[C@@H](Cc1ccc(O)cc1)C(=O)N[C@@H](Cc1ccccc1)C(=O)N[C@@H](CCCCN)C(=O)O has a pIC50 of 4.30.

What follows are molecules tested against T1, Heat shock protein HSP 90-beta (assay: Inhibition of C-terminal HSP90beta (527 to 724 residues) (unknown origin) interaction with CYP40 at 1 to 25 uM measured after 30 mins by AlphaLISA assay). Conditions: dose 1-25 µM.
In the case of NCCCC[C@@H]1NC(=O)[C@H](Cc2ccccc2)NC(=O)[C@H](Cc2ccc(O)cc2)NC(=O)[C@H](CO)NC(=O)[C@H](CC(=O)O)NC1=O (cyclo(DSYFK)), the inhibition was “inactive”.
For NCCCC[C@@H]1NC(=O)[C@H](Cc2ccccc2)NC(=O)[C@H](Cc2ccc(O)cc2)NC(=O)[C@H](CO)NC(=O)[C@H](Cc2ccccc2)NC1=O (cyclo(FKFSY)), the inhibition was “Active”.
For NCCCC[C@@H]1NC(=O)[C@H](Cc2ccccc2)NC(=O)[C@H](Cc2ccc(O)cc2)NC(=O)[C@H](CO)NC(=O)[C@@H](CC(N)=O)NC1=O (cyclo(FK[dN]SY)), the inhibition was “inactive”.
NCCCC[C@@H]1NC(=O)[C@H](Cc2ccccc2)NC(=O)[C@H](Cc2ccc(O)cc2)NC(=O)[C@@H](CO)NC(=O)[C@H](CC(N)=O)NC1=O (cyclo(FKN[dS]Y)) was tested, and the inhibition was “inactive”.
For CC(C)C[C@@H]1NC(=O)[C@H](CCCCN)NC(=O)[C@H](Cc2ccccc2)NC(=O)[C@H](Cc2ccc(O)cc2)NC(=O)[C@H](CO)NC1=O (cyclo(FKLSY)), the inhibition was “inactive”.
With NCCCC[C@@H]1NC(=O)[C@@H](Cc2ccccc2)NC(=O)[C@H](Cc2ccc(O)cc2)NC(=O)[C@H](CO)NC(=O)[C@H](CC(N)=O)NC1=O (cyclo(KNSY[dF])) the inhibition was “inactive”.
With C[C@@H]1NC(=O)[C@H](CC(N)=O)NC(=O)[C@H](CCCCN)NC(=O)[C@H](Cc2ccccc2)NC(=O)[C@H](Cc2ccc(O)cc2)NC1=O (cyclo(AYFKN)) the inhibition was “Active”.
C[C@H]1NC(=O)[C@H](CCCCN)NC(=O)[C@H](Cc2ccccc2)NC(=O)[C@H](Cc2ccc(O)cc2)NC(=O)[C@H](CO)NC1=O was tested, and the inhibition was “inactive”.

What follows are molecules tested against T1, Heat shock protein HSP 90-beta (assay: Potency index, ratio of Kawakami-peptide IC50 to LB51 IC50 C-terminal HSP90beta (527 to 724 residues) (unknown origin) interaction with CYP40 measured after 30 mins by Alphascreen assay). Conditions: not given.
NCCCC[C@@H]1NC(=O)[C@H](Cc2ccccc2)NC(=O)[C@H](Cc2ccc(O)cc2)NC(=O)[C@H](CO)NC(=O)[C@H](CC(N)=O)NC1=O (cyclo(KNSYF)) gave a Ratio IC50 greater than 10.
